From US20130045952A1, “ABA Receptor Agonists for Increased Plant Stress Resistance” (Van Andel Research Institute, priority 2011, published 2013)

Key:
Assay type in all cases: biochemical
His6-PYL3 / biotin-PP2C = target: T1, His6-PYL3 / biotin-PP2C (Arabidopsis thaliana, UniProt Q9SSM7); assay: AlphaScreen luminescence proximity assay, PYL3-PP2C interaction; conditions: 100 nM His6-PYL3, 100 nM biotin-PP2C, 100 μM agonist; normalized against a pyrabactin control
T1 construct: made in house; host or cells: not expressly stated for PYL3
T1 sequence (Q9SSM7 1-209): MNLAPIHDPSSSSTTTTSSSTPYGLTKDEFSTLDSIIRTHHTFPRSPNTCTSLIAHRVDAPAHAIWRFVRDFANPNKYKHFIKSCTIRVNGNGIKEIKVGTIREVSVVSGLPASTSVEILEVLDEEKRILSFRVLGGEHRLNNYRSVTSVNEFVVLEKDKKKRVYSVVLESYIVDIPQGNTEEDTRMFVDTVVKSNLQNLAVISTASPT
Method: (§1) Mutant proteins were expressed as H6GST-fusion proteins and purified by glutathione sepharose chromatography. Protein-protein interactions were determined by luminescence proximity AlphaScreen assay. Biotinylated PP2C proteins for the luminescence proximity assay were generated by in vivo biotinylation of avitag-PP2C fusion proteins. PP2C phosphatase activity was measured by phosphate release from a SnRK2.6 phosphoprotein.
(§2) Interactions between PYR/PYL and PP2Cs were assessed by luminescence-proximity AlphaScreen technology (Perkin Elmer). Briefly, biotinylated PP2Cs were attached to streptavidin-coated donor beads, and H6-tagged PYR/PYL receptors were attached to nickel-chelated acceptor beads. The donor and acceptor beads were brought into proximity by the interactions between PYR/PYLs and PP2Cs, which were measured with and without ligands. When excited by a laser beam of 680 nm, the donor beam emits singlet oxygen that activates thioxene derivatives in the acceptor beads, which releases photons of 520-620 nm as the binding signal. The experiments were conducted with 100 nM of PP2Cs and PYR/PYL proteins in the presence of 5 ug/ml donor and acceptor beads in a buffer of 50 mM MOPS, pH7.4, 50 mM NaF, […], and 0.1 mg/ml bovine serum albumin. The results were based on an average of three experiments with standard errors typically less than 10% of the measurements.
(§3) Values were determined in different experiments and normalized against a pyrabactin control. Blank spaces mean no experimental data is available. Key (photon counts (binding signal units) in Alphascreen luminescence proximity assay): “+++ is >75,000; ++ is 25,000−75,000; + is <25,000.

His6-PYR1 / biotin-PP2C = target: T2, His6-PYR1 / biotin-PP2C (Arabidopsis thaliana, UniProt O49686); assay: AlphaScreen luminescence proximity assay, PYR1-PP2C interaction; conditions: 100 nM His6-PYR1, 100 nM biotin-PP2C, 100 μM agonist; normalized against a pyrabactin control
T2 construct: made in house; host or cells: E. coli is stated for PYL1, PYL2 and the PP2Cs, not expressly for PYR1
T2 sequence (O49686 1-191): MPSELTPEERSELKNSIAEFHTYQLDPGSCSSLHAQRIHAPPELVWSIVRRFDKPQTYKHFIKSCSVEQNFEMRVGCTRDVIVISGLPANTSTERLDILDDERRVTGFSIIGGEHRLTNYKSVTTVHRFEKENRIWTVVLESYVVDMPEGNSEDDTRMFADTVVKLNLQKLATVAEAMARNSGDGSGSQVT
Method: as §1, §2, §3

His6-PYL2 / biotin-PP2C = target: T3, His6-PYL2 / biotin-PP2C (Arabidopsis thaliana, UniProt O80992); assay: AlphaScreen luminescence proximity assay, PYL2-PP2C interaction; conditions: 100 nM His6-PYL2, 100 nM biotin-PP2C, 100 μM agonist; normalized against a pyrabactin control
T3 construct: PYL2 (residues 14-188), and HAB1 (residues 172-511) were prepared as recombinant proteins in E. coli; made in house; host or cells: E. coli
T3 sequence (O80992 14-188): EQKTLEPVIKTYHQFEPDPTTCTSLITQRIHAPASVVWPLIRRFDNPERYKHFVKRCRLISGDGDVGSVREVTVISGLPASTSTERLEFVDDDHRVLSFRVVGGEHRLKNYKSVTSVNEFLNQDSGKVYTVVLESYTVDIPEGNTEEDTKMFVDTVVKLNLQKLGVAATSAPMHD
Method: as §1, §2, §3

His6-PYL1 / biotin-PP2C = target: T4, His6-PYL1 / biotin-PP2C (Arabidopsis thaliana, UniProt Q8VZS8); assay: AlphaScreen luminescence proximity assay, PYL1-PP2C interaction; conditions: 100 nM His6-PYL1, 100 nM biotin-PP2C, 100 μM agonist; normalized against a pyrabactin control
T4 construct: PYL1 (residues 36-211), PYL2 (residues 14-188), and HAB1 (residues 172-511) were prepared as recombinant proteins in E. coli; made in house; host or cells: E. coli
T4 sequence (Q8VZS8 36-211): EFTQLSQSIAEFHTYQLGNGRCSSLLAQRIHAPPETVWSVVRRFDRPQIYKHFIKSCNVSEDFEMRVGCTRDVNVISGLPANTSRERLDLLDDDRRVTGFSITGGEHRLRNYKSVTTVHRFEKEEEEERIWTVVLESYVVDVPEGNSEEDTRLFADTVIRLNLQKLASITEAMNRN
Method: as §1, §2, §3

Row | SMILES | Stimulation of the interaction between PYL3 and PP2C (binding signal) (His6-PYL3 / biotin-PP2C) | Stimulation of the interaction between PYR1 and PP2C (binding signal) (His6-PYR1 / biotin-PP2C) | Stimulation of the interaction between PYL2 and PP2C (binding signal) (His6-PYL2 / biotin-PP2C) | Stimulation of the interaction between PYL1 and PP2C (binding signal) (His6-PYL1 / biotin-PP2C)
1 | CCCCOc1cccc(C(=O)NC(=S)Nc2ccc(S(N)(=O)=O)cc2)c1 [Compound 9] | + (+ is <25,000) | + (+ is <25,000) | + (+ is <25,000) | –
2 | CC1(C)CC(=O)C(/C=N/CCc2ccc(S(N)(=O)=O)cc2)=C(O)C1 [Compound 10] | + (+ is <25,000) | + (+ is <25,000) | + (+ is <25,000) | –
3 | O=S(=O)(NC[C@@H]1CCCO1)c1ccc(Br)c2ccccc12 [Compound 12] | +++ (+++ is >75,000) | +++ (+++ is >75,000) | – | –
4 | CCCN(CCC)C(=O)[C@@H](CCC(=O)O)NS(=O)(=O)c1ccc(C)cc1 [Compound 13] | – | + (+ is <25,000) | – | –
5 | Cc1ccc(C(=O)O)cc1NC(=S)NC(=O)c1ccccc1Cl [Compound 14] | + (+ is <25,000) | + (+ is <25,000) | + (+ is <25,000) | –
6 | CC(=O)c1cccc(N/C=C/C(=O)c2ccc(Cl)c(Cl)c2)c1 [Compound 15] | ++ (++ is 25,000−75,000) | + (+ is <25,000) | ++ (++ is 25,000−75,000) | + (+ is <25,000)
